According to patent publication US20080015147A1, “Method for inhibiting neuronal cell death” (priority 2006, published 2008):

Columns and labels:
Type in all cases: cell-based, mouse
[1] = tested on: cleaved caspase 3; experiment: Caspase 3 cleavage by immunoblot; conditions: 48 hr; any pH condition for TCAP-1
Procedure: Detection of caspase 3 cleavage was determined at 48 hrs. The samples at each pH and control (see above) were lysed using total protein isolation lysis buffer (described above). An aliquot of 25 μl of each sample was combined with 25 μl of 2×20% sodium dodecyl sulphate (SDS) sample buffer and loaded onto a 4-10% HCL-Tris pre cast polyacrylamide gel (BioRad, Mississauga). The gel was run at 200 v for 35 min and proteins were electrotransfered to a Hybond-C nitrocellulose membrane (Amersham, Baie d'Urfé) for 75 min at 100 v. After transfer, the membrane was washed with 10 ml of PBS with 0.05% Tween 20 (PBST) for 5 min at room temperature (RT) and the membrane was incubated in 10 ml of PBST-milk for one hour at RT followed by 3 times for 5 min washes with 10 ml of PBST. The membrane was then incubated with cleaved caspase 3 primary antibody (Cell Signaling Technology, Beverly) at a titre of 1:500 in 6 ml of PBST-milk with gentle agitation overnight at 4° C. The membranes were washed 3 times for 5 min with 10 ml of PBST followed by membrane incubation with anti-rabbit horseradish peroxidase (HRP)-conjugated secondary antibody (Amersham, Baie d'Urfé) at 1:3000 in 6 ml of PBST-milk with gentle agitation for 1 hr at RT. […]

[2] = tested on: caspase 3; experiment: Caspase 3 colorimetric assay; conditions: pH 7.4; apoptotic control
Procedure: (§1) Caspase 8 and 3 colorimetric assays were performed on the N38 cells at all pH conditions. The assay was based on the detection of the chromophore pNA after cleavage from the labeled substrate IETD-pNA and DEVD-pNA for caspase 8 and 3, respectively. Comparison of the pNA absorbance from the suspected apoptotic sample was compared to the uninduced neutral pH sample. Caspase 8 and 3 were analysed using the Caspase-3 Colorimetric Activity Assay (Chemicon, Temecula USA) and Caspase-8 Colorimetric Activity Assay (Chemicon, Temecula USA). The cells from each pH treatment described previously at 24 and 48 hrs were removed using a cell scraper and centrifuged at 1500 rpm for 10 minutes. The cells were resuspended in 350 μl of chilled cell lysis buffer containing 500 μl PBS, 5 μl 1% Triton ×100 (Sigma, St. Louis), 25 μl proteinase inhibitor cocktail set III (VWR, Mississauga), 0.5 μM dithiothreitol (DTT) (Sigma, St. Louis) and 2.5 μl phenylmethylsulphonylfluoride (PMSF) diluted in 1 mL of methanol (EM Science, Gibbstown), then incubated on ice for 10 min and centrifuged for 5 minutes at 10,000 rpm. The supernatant, consisting of cytosolic extracts, was transferred to a new tube and a bicinchoninic acid (BCA) protein assay (Pierce, Rockford) was conducted to determine total protein concentration. The absorbance of each sample was measured on a SPECTRAmax Microplate spectrophotometer at 405 nm after an incubation period of 2 hours at 37° C. Changes in caspase 3 activity were determined by comparing the absorbance reading from the induced sample with the level of the uninduced control. Background readings from the buffer were subtracted from the reading of both the induced (pH 6.8, 8.0, 8.4) and uninduced (pH 7.4) samples before calculating changes in caspase 3 activity. The same was done for the detection of caspase 8. As a control, N38 cells were cultured with pH 7.4 DMEM and incubated for 4 days, apoptosis was then induced using 10 μM/ml etoposide and lysed according to the above protocol and used a control for all subsequent caspase 3 detection. All assays were performed with 4 replications.

[3] = tested on: caspase 8; experiment: Caspase 8 colorimetric assay; conditions: pH 7.4; apoptotic control
Procedure: as §1

SMILES: COc1cc([C@@H]2c3cc4c(cc3[C@@H](O[C@@H]3O[C@@H]5CO[C@@H](C)O[C@H]5[C@H](O)[C@H]3O)[C@H]3COC(=O)[C@H]23)OCO4)cc(OC)c1O [Etoposide, etoposide, reference compound]
- caspase 3 cleavage product (17/19 kDa) on western blot [1]: clearly visible
- increase in caspase-3 relative to vehicle-treated cells [2]: 3.5 fold
- increase in caspase 8 relative to vehicle-treated cells [3]: greater than 3 fold
